≈ marks a conversion by molar mass, not a printed value. Where “and” joins values, the source holds several entries; their conditions need not be identical. Identical values can stand only once. Like-named read-outs stand apart in the source and are kept apart here.
Experiments:
[1] = Maximum solubility of ITZA and azole analogues in solvents (HPLC); assay type: physicochemical; conditions: for solubility at 30 min: organic solvent or mixture, thermodynamic from solid
Procedure: ITZA and its analogues were dissolved in various solvents incubated at 37° C. for 30 minutes, cooled down to room temperature, centrifuged at 14,000 rpm for 1 min. The supernatant was analyzed using HPLC to determine the maximum solubility of ITZA and its azole analogues.
In a first step the maximum ITZA solubility in various single solvents was determined. To this end, ITZA and its analogs were dissolved in various solvents, incubated at 37° C. for 30 minutes, cooled down to room temperature, centrifuged at 14,000 rpm for 1 min. The supernatant was analyzed using HPLC to determine the maximum solubility of the respective agent.
The solubility of ITZA was determined in several individual vehicles. Briefly, a known amount of ITZA drug, formulated as a powder (Sigma Inc., St Louis, Mo.), was equilibrated in the respective solvent at RT over 1-4 hours. An aliquot was removed, filtered, and prepared for HPLC to determine maximum solubility at room temperature. Based on the ITZA solubility in each vehicle, different solvents were mixed according to the cosolvency principle in an attempt to arrive at an enhanced stable solubility. […] The stock formulation was then diluted with a final diluent, i.e. NS or D5W or DlOW, to yield a stable use-formulation. The desired range of the final use-formulation was between 1 and 5 mg/mL, as it would result in a final volume that could be safely and conveniently infused intravascularly.
An excess of ITZA as a powder was added to a multitude of chemical solvents (Table 1) at RT. Each mixture was intermittently vortexed, placed in a dark environment and checked visually for up to 4 hours for evidence of solubilization. Following centrifugation to remove solid particles, small samples were withdrawn after consecutive time intervals and the ITZA concentration was determined by HPLC as described.

[2] = Stability of ITZA/POSA in solvent vehicles (HPLC); assay type: physicochemical; design: POSA concentration: unit: mg/mL; conditions: for POSA concentration: single determination
[3] = cited from earlier work
in vivo = conditions: both, Swiss Webster, mouse, plasma, iv, 5 mg/kg
Procedure: (§1) Swiss Webster mice were used for pharmacokinetic studies of ITZA and its analogs. The dilation of the vein was accomplished by warming up the mice using a heat lamp. […] Mice were allowed to recover and blood samples were obtained through cardiac puncture under general anesthesia with Isoflurane/oxygen by vaporizer at various time points. Plasma was obtained by centrifugation of blood sample at 3,200 rpm for 5 min. at 4° C. Plasma proteins were precipitated by adding acetonitrile (twice the volume of plasma). The mixture was vortexed for 30 seconds and centrifuged for 5 min. at 14,000 rpm. The supernatant was saved and was injected into the HPLC to determine the respective drug concentrations.
(§2) Unless specified, the analogous experiments were performed using POSA as an alternative to ITZA; Swiss Webster mice of both sexes with a body weight of 25-30 g were used for the in vivo pharmacology experiments (Harlan-Sprague-Dawley, Houston, Tex.). The animals were allowed a minimum of 7 days after arrival to accommodate to the new environment and allowed free access to commercial feed and tap water prior to and during the experimentation period. The animals were housed in an Association for the Assessment and Accreditation of Laboratory Animal Care International (AAALAC)-approved facility that meets the requirements of the USDA, NIH, and DHHS.
(§3) The ITZA dose of 5 mg/kg BW was determined to be a suitable test dose that could be administered to the mice as a slow (3-4 min) IV bolus injection without requiring sedation, but could be performed with only minimal physical restraint of the animals in a standard funnel-type cage.
(§4) The ITZA was formulated in the H3 solvent system described above as the preferred solvent to a stock concentration of 4-5 mg/mL and then diluted with NS (ratio 1:1) so the intended dose (5.0 mg/kg BW) could be injected in a tail vein in a total volume of approximately 100 μL. […] No sedative premedication was used for the mice in this experiment to avoid the possible induction of microsomal liver enzymes that could modify ITZA metabolism. Thus, the animals were unanesthetized, being only physically restrained during and immediately following the drug injection.
(§5) Blood samples (0.5-1.0 mL) were drawn through cardiac puncture into heparinized tubes at selected time points prior to the drug infusion (“blank”), and from 5 min to 1 hour after drug injection for determination of ITZA concentrations, and for 5 min to about 7 hrs in the POSA experiment. The mice were exposed to 2% -4% isoflurane for general anesthesia. Blood samples were obtained through cardiac puncture and immediately deposited in heparinized microcentrifuge tubes.

[4] = Plasma pharmacology after IV injection in mice
Procedure: as §1, §2, §3, §4, §5

[5] = POSA in H3G/5% Dextrose., 24 hr

SMILES: CC[C@@H]([C@H](C)O)n1ncn(-c2ccc(N3CCN(c4ccc(OC[C@@H]5CO[C@@](Cn6cncn6)(c6ccc(F)cc6F)C5)cc4)CC3)cc2)c1=O [POSA, posaconazole]
- solubility at 30 min ([1]; solvent H3D (no benzyl alcohol), solvent H3D (no benzyl alcohol), single determination, read-out: Azole solubility, [Drug] mg/mL): 33.8 mg/mL (≈ 48.2 mM)
- solubility at 30 min ([1]; solvent H3D (no benzyl alcohol), solvent H3D (no benzyl alcohol), read-out: Azole solubility, Average mg/mL): 35.3 mg/mL (≈ 50.4 mM)
- Azole solubility, [Drug] mg/mL ([1]; solvent H3D (no benzyl alcohol), single determination): 35.08 mg/mL and 37.14 mg/mL
- solubility at 30 min ([1]; solvent H3G (no benzyl alcohol), solvent H3G (no benzyl alcohol), single determination, read-out: Azole solubility, [Drug] mg/mL): 30.6 mg/mL (≈ 43.7 mM)
- solubility at 30 min ([1]; solvent H3G (no benzyl alcohol), solvent H3G (no benzyl alcohol), read-out: Azole solubility, Average mg/mL): 32.2 mg/mL (≈ 45.9 mM)
- Azole solubility, [Drug] mg/mL ([1]; solvent H3G (no benzyl alcohol), single determination): 33.86 mg/mL and 32.04 mg/mL
- % of 0 hr ([2]; POSA in H3G, 0 hr): 100%
- average ([2]; POSA in H3G, 0 hr): 3.70 mg/mL
- POSA concentration ([2]; POSA in H3G, 0 hr): 3.76 and 3.69 and 3.66
- % of 0 hr ([2]; POSA in H3G, 2 hr): 102%
- average ([2]; POSA in H3G, 2 hr): 3.78 mg/mL
- POSA concentration ([2]; POSA in H3G, 2 hr): 3.93 and 3.73 and 3.67
- % of 0 hr ([2]; POSA in H3G, 4 hr): 114%
- average ([2]; POSA in H3G, 4 hr): 4.23 mg/mL
- POSA concentration ([2]; POSA in H3G, 4 hr): 3.98 and 4.33 and 4.37
- % of 0 hr ([2]; POSA in H3G, 6 hr): 114%
- average ([2]; POSA in H3G, 6 hr): 4.23 mg/mL
- POSA concentration ([2]; POSA in H3G, 6 hr): 3.98 and 4.33 and 4.37
- % of 0 hr ([2]; POSA in H3G, 8 hr): 97%
- average ([2]; POSA in H3G, 8 hr): 3.57 mg/mL
- POSA concentration ([2]; POSA in H3G, 8 hr): 3.68 and 3.47 and 3.57
- % of 0 hr ([2]; POSA in H3G, 24 hr): 99%
- average ([2]; POSA in H3G, 24 hr): 3.65 mg/mL
- POSA concentration ([2]; POSA in H3G, 24 hr): 3.73 and 3.52 and 3.70
- % of 0 hr ([2]; POSA in H3G/5% Dextrose., 0 hr): 100%
- POSA concentration ([2]; POSA in H3G/5% Dextrose., 0 hr): 1.76 and 1.68
- % of 0 hr ([2]; POSA in H3G/5% Dextrose., 2 hr): 109%
- POSA concentration ([2]; POSA in H3G/5% Dextrose., 2 hr): 1.84 and 1.81 and 2.02
- % of 0 hr ([2]; POSA in H3G/5% Dextrose., 4 hr): 113%
- POSA concentration ([2]; POSA in H3G/5% Dextrose., 4 hr): 1.92 and 1.91 and 2.03
- % of 0 hr ([2]; POSA in H3G/5% Dextrose., 6 hr): 109%
- POSA concentration ([2]; POSA in H3G/5% Dextrose., 6 hr): 1.75 and 1.93 and 2.01
- % of 0 hr ([2]; POSA in H3G/5% Dextrose., 8 hr): 106%
- POSA concentration ([2]; POSA in H3G/5% Dextrose., 8 hr): 1.71 and 1.89 and 1.92
- % of 0 hr [2, 5]: 105%
- POSA concentration [2, 5]: 1.78 and 1.80 and 1.87
- % of 0 hr ([2]; POSA in H3d, 0 hr): 100%
- average ([2]; POSA in H3d, 0 hr): 3.78 mg/mL
- POSA concentration ([2]; POSA in H3d, 0 hr): 3.82 and 3.75 and 3.78
- % of 0 hr ([2]; POSA in H3d, 2 hr): 100%
- average ([2]; POSA in H3d, 2 hr): 3.79 mg/mL
- POSA concentration ([2]; POSA in H3d, 2 hr): 3.67 and 3.81 and 3.89
- % of 0 hr ([2]; POSA in H3d, 4 hr): 112%
- average ([2]; POSA in H3d, 4 hr): 4.24 mg/mL
- POSA concentration ([2]; POSA in H3d, 4 hr): 4.00 and 4.15 and 4.56
- % of 0 hr ([2]; POSA in H3d, 6 hr): 118%
- average ([2]; POSA in H3d, 6 hr): 4.45 mg/mL
- POSA concentration ([2]; POSA in H3d, 6 hr): 4.20 and 4.32 and 4.82
- % of 0 hr ([2]; POSA in H3d, 8 hr): 106%
- average ([2]; POSA in H3d, 8 hr): 3.99 mg/mL
- POSA concentration ([2]; POSA in H3d, 8 hr): 4.18 and 3.77 and 4.03
- % of 0 hr ([2]; POSA in H3d, 24 hr): 101%
- average ([2]; POSA in H3d, 24 hr): 3.83 mg/mL
- POSA concentration ([2]; POSA in H3d, 24 hr): 3.81 and 3.75 and 3.92
- % of 0 hr ([2]; POSA in H3d/5% Dextrose, 0 hr): 100%
- POSA concentration ([2]; POSA in H3d/5% Dextrose, 0 hr): 1.75 and 1.77 and 1.81
- % of 0 hr ([2]; POSA in H3d/5% Dextrose, 2 hr): 100%
- POSA concentration ([2]; POSA in H3d/5% Dextrose, 2 hr): 1.77 and 1.74 and 1.83
- % of 0 hr ([2]; POSA in H3d/5% Dextrose, 4 hr): 111%
- POSA concentration ([2]; POSA in H3d/5% Dextrose, 4 hr): 1.88 and 1.81 and 2.20
- % of 0 hr ([2]; POSA in H3d/5% Dextrose, 6 hr): 109%
- POSA concentration ([2]; POSA in H3d/5% Dextrose, 6 hr): 1.95 and 1.93 and 1.94
- % of 0 hr ([2]; POSA in H3d/5% Dextrose, 8 hr): 102%
- POSA concentration ([2]; POSA in H3d/5% Dextrose, 8 hr): 1.86 and 1.68 and 1.90
- % of 0 hr ([2]; POSA in H3d/5% Dextrose, 24 hr): 103%
- POSA concentration ([2]; POSA in H3d/5% Dextrose, 24 hr): 1.78 and 1.79 and 1.93
- known plasma half-life ([3]; literature (Ref 24, 32, 42, 45)): 25 to 35 h
- half-life after oral administration ([3]; oral drug, literature): 15 to 30 h
- half-life (in vivo): 6 to 7 h
- tolerability of IV injection (in words) ([4]; 5.0 mg/kg BW, slow injection over 3-4 min): well accepted
- apparent in vivo half-life ([4]; 5 mg/kg IV): 6 to 7 h
- time plasma concentrations remain in the fungi-toxic range ([4]; IV dose of 5 mg/kg): in excess of one hour
- peak concentration (plasma) ([4]; IV injection of 5 mg/kg over 4 min): 3.2 to 3.3 µg/mL

From patent publication US10307418B2, “Azole pharmaceutical formulations for parenteral administration and methods for preparing and using the same as treatment of diseases sensitive to azole compounds” (Platform Brightworks Two, Ltd., priority 2010, dated 2019)
